Experimental data as given in patent US11660311B2, “Cyclic dinucleotides as anticancer agents” (priority 2017, dated 2023).
Read-outs that look alike come from different tables or passages of the source.

Legend:
[1] = molecular target: T1, STING WT: His-TVMV-S-hSTING(155-341)-H232R (Homo sapiens, UniProt Q86WV6, H232R); experiment: STING HTRF Binding Assay, STING WT; details: 20 nM His-tagged STING cytoplasmic domain, 200 nM fluorescein-labeled cGAMP analog probe, one hour; read-out: HTRF Binding Assays IC50 (μM) STING WT
T1 construct: STING WT: His-TVMV-S-hSTING(155-341)-H232R
Protocol: (§1) A time resolved FRET-based competition binding assay was used to assess test article binding to STING WT and STING AQ. His-tagged STING cytoplasmic domain (WT or AQ) at a concentration of 20 nM was incubated with 2.5 nM Tb-labeled anti-His antibody, test compound, and fluorescein-labeled cGAMP analog probe (BioLog cat. no. C195) at a concentration of 200 nM (STING WT) or 40 nM (STING AQ) in PBS containing 0.005% Tween-20 and 0.1% BSA for one hour. Fluorescence at 495 nm and 520 nm was measured using an EnVision microplate reader to quantify FRET between Tb-labeled anti-His antibody and fluorescein-labeled probe. Background was defined as the signal obtained in the absence of STING protein, and background subtracted FRET ratios were normalized to the maximum signal obtained in the absence of test compound. These values were converted to a percent inhibition. Percent inhibition was determined for test compounds at 11 concentrations. The IC50, defined as the concentration of competing test compound needed to reduce specific binding of the probe by 50%, was calculated using the 4 parameter logistic equation to fit the data

[2] = system: NF-κB pathway in THP1-Dual STING reporter cells; experiment: STING THP1 Reporter Assay, NF-κB pathway (SEAP); format: cell-based, human; details: 100% = 100 μM cGAMP
Source text: (§2) THP1-Dual™ cells were derived from the human THP-1 monocyte cell line by stable integration of two inducible reporter constructs. To this end, THP1-Dual™ cells allow the simultaneous study of the NF-κB pathway, by monitoring the activity of SEAP, and the IRF pathway by assessing the activity of a secreted luciferase (Lucia). Both reporter proteins are readily measurable in the cell culture supernatant when using QUANTI-Blue™, a SEAP detection reagent, and QUANTI-Luc™, a luciferase detection reagent.
(§3) THP1-Dual™ cells induce the activation of NF-κB in response to STING agonists. They also trigger the IRF pathway upon stimulation with STING agonists, such as cGAMP. Here, the THP-1-Dual cells were used to assess STING binders for function on the cellular level.
(§4) Serial dilutions of compounds in DMSO were added to low volume 384 well plates at 100 nl/well using an ECHO acoustic dispenser (Labcyte, model 550) to achieve final starting concentration of 100 μM in cell suspension. […] One column of the plate was reserved for treatment with cGAMP at 100 μM for 100% activation calculation and one column for no treatment (DMSO only) for baseline activation. Plates were then incubated in 37° C. incubator at 5% CO2 for 20 hours.
(§5) In the SEAP assay, 5 μl of 2× QuantiBlue (Invivogen, cat #Rep-qb2) is added to 384 well black plates seeded with THP1 cells and incubated at 37° C. for 2 hours. Plates were read on the Envision (Perkin Elmer) at 620 nm wavelength (OD620). In the luciferase assay, 5 μl of Quantiluc (Invivogen, Rep-qlc2) is added to white 384 well plates seeded with THP1 cells and read at 5 minutes on the Envision (Perkin Elmer) using a luminescence protocol (RLU). For both cell lines, 100% activation was determined by value (RLU) of THP-1 Dual STING cells stimulated with 100 μM cGAMP (Invivogen, cat #TLRL-NACGA23-5).

[3] = molecular target: T2, STING AQ: His-TVMV-S-hSTING(155-341)-G230A-R293Q (Homo sapiens, UniProt Q86WV6, G230A/H232R/R293Q); experiment: STING HTRF Binding Assay, STING AQ; details: 20 nM His-tagged STING cytoplasmic domain, 40 nM fluorescein-labeled cGAMP analog probe, one hour; read-out: HTRF Binding Assays IC50 (μM) STING AQ
T2 construct: STING AQ: His-TVMV-S-hSTING(155-341)-G230A-R293Q
Protocol: as §1

[4] = system: IRF pathway in THP1-Dual STING reporter cells; experiment: STING THP1 Reporter Assay, IRF pathway (secreted Lucia luciferase); format: cell-based, human; details: 100% = 100 μM cGAMP
Source text: as §2, §3, §4, §5

[5] = Homo sapiens, THP1-Dual, 20 h, read-out: THP1 Reporter Assays EC50 (μM) NFkB, THP1-Dual cells, 10% human plasma, 20 hours, SEAP
[6] = Homo sapiens, THP1-Dual, 20 h, THP1-Dual cells, 10% human plasma, 20 hours, luciferase, read-out: THP1 Reporter Assays EC50 (μM) IRF3
[7] = read-out: THP1 Reporter Assays EC50 (μM) NFkB, THP1-Dual cells, 10% human plasma, 20 hours, SEAP
[8] = read-out: THP1 Reporter Assays EC50 (μM) IRF3, THP1-Dual cells, 10% human plasma, 20 hours, luciferase
[9] = Homo sapiens, THP1-Dual, 20 h, read-out: THP1 Reporter Assays EC50 (μM) IRF3, THP1-Dual cells, 10% human plasma, 20 hours, luciferase
[10] = THP1-Dual cells, 10% human plasma, 20 hours, SEAP, read-out: THP1 Reporter Assays EC50 (μM) NFkB
[11] = THP1-Dual cells, 10% human plasma, 20 hours, luciferase, read-out: THP1 Reporter Assays EC50 (μM) IRF3
[12] = Homo sapiens, THP1-Dual, 20 h, THP1-Dual cells, 10% human plasma, 20 hours, SEAP, read-out: THP1 Reporter Assays EC50 (μM) NFkB

T2 sequence (Q86WV6 with tags, fused parts or gaps G230A/H232R/R293Q): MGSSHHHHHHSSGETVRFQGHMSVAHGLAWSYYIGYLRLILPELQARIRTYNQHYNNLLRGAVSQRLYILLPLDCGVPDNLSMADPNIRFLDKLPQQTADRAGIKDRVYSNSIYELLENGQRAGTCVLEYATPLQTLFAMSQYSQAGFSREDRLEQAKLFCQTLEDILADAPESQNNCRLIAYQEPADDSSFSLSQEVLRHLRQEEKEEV
T1 sequence (Q86WV6 with tags, fused parts or gaps H232R): as the sequence (Q86WV6 with tags, fused parts or gaps G230A/H232R/R293Q) above, with A99G, Q162R counted along it

Work on `NC(=O)c1cccc2c1nnn2[C@@H]1O[C@@H]2COP(=O)(O)O[C@H]3[C@@H](F)[C@H](n4cnc5c(N)ncnc54)O[C@@H]3COP(=O)(O)O[C@H]2[C@H]1F` [Example 7, 1-[(1R,6R,8R,9R,10R,15R,17R,18R)-17-(6-amino-9H-purin-9-yl)-9,18-difluoro-3,12-dihydroxy-3,12-dioxo-2,4,7,11,13,16-hexaoxa-3λ^5,12λ^5-diphosphatricyclo[13.3.0.0^6,10]octadecan-8-yl]-1H-1,2,3-benzotriazole-4-carboxamide] yielded an IC50 [1] of 11.9 µM, an EC50 [2, 5] of over 100 µM and an IC50 [3] of 0.31 µM. It also gave an EC50 [4, 6] of over 100 µM.

Work on `Nc1ncnc2c1ncn2[C@@H]1O[C@@H]2COP(=O)(S)O[C@H]3[C@@H](F)[C@H](n4cnc5c4ncn4ccnc54)O[C@@H]3COP(=O)(S)O[C@H]2[C@H]1F` (single isomer, unassigned) [Example 21-1] yielded an IC50 [1] of 0.32 µM, an EC50 [2, 7] of 34.6 µM and an IC50 [3] of 0.01 µM. It also gave an EC50 [4, 8] of 28.2 µM.

Work on `Nc1ncnc2c1ncn2[C@@H]1O[C@@H]2COP(=O)(S)O[C@H]3[C@@H](O)[C@H](n4cnc5c(=O)[nH]c6nccn6c54)O[C@@H]3COP(=O)(S)O[C@H]2[C@H]1F` (mixture of isomers) [Example 5, (1S,6R,8R,9R,10R,15R,17R,18R)-8-(6-amino-9H-purin-9-yl)-9-fluoro-18-hydroxy-17-{4-oxo-1H,4H,5H-imidazo[2,1-b]purin-1-yl}-3,12-disulfanyl-2,4,7,11,13,16-hexaoxa-3λ^5,12λ^5-diphosphatricyclo[13.3.0.0^6,10]octadecane-3,12-dione] yielded an IC50 [1] of 0.004 µM, an EC50 [2, 5] of 1.35 µM and an IC50 [3] of 0.001 µM. It also gave an EC50 [4, 9] of 0.49 µM.

Compound `Nc1ncnc2c1ncn2[C@@H]1O[C@@H]2COP(=O)(S)O[C@H]3[C@@H](O)[C@H](n4nnc5c([N+](=O)[O-])cccc54)O[C@@H]3COP(=O)(O)O[C@H]2[C@H]1F` (single isomer, unassigned) [Example 13-2] has an IC50 [1] of 5.49 µM, an EC50 [2, 7] of over 100 µM and an IC50 [3] of 0.45 µM. It also gave an EC50 [4, 8] of over 100 µM.

For `Nc1ncnc2c1ncn2[C@@H]1O[C@@H]2COP(=O)(S)O[C@H]3[C@@H](O)[C@H](n4cnc5c4ncn4ncnc54)O[C@@H]3COP(=O)(O)O[C@H]2[C@H]1F` (single isomer, unassigned) [Example 10-2], the IC50 [1] was 0.05 µM, the EC50 [2, 7] was 8.99 µM and the EC50 [4, 8] was 3.69 µM.

Compound `NC(=O)c1cccc2c1nnn2[C@@H]1O[C@@H]2COP(=O)(S)O[C@H]3[C@@H](F)[C@H](n4cnc5c(N)ncnc54)O[C@@H]3COP(=O)(S)O[C@H]2[C@H]1F` (single isomer, unassigned) [Example 4-4] has an IC50 [1] of 0.78 µM, an EC50 [2, 10] of 92.4 µM and an IC50 [3] of 0.02 µM. It also gave an EC50 [4, 11] of 81.1 µM.

`Nc1ncnc2c1ncn2[C@@H]1O[C@@H]2COP(=O)(O)O[C@H]3[C@@H](O)[C@H](n4cnc5c(=O)n6ccnc6[nH]c54)O[C@@H]3COP(=O)(O)O[C@H]2[C@H]1F` [Example 2, (1S,6R,8R,9R,10R,15R,17R,18R)-8-(6-amino-9H-purin-9-yl)-9-fluoro-3,12,18-trihydroxy-17-{9-oxo-3H,4H,9H-imidazo[1,2-a]purin-3-yl}-2,4,7,11,13,16-hexaoxa-3λ^5,12λ^5-diphosphatricyclo[13.3.0.0^6,10]octadecane-3,12-dione] showed an IC50 [1] of 0.04 µM, an EC50 [2, 5] of 4.38 µM and an IC50 [3] of 0.01 µM. It also gave an EC50 [4, 9] of 2.36 µM.

Work on `Nc1ncnc2c1ncn2[C@@H]1O[C@@H]2COP(=O)(S)O[C@H]3[C@@H](F)[C@H](n4cnc5c4ncn4ccnc54)O[C@@H]3COP(=O)(S)O[C@H]2[C@H]1F` (single isomer, unassigned) [Example 21-4] yielded an IC50 [1] of 0.01 µM, an EC50 [2, 7] of 0.67 µM and an IC50 [3] of 0.01 µM. For the same compound, the EC50 [4, 8] was 0.28 µM.

Compound `Nc1ncnc2c1ncn2[C@@H]1O[C@@H]2COP(O)(=S)O[C@H]3[C@@H](F)[C@H](n4cnc5c4ncn4ncnc54)O[C@@H]3COP(O)(=S)O[C@H]2[C@H]1F` (single isomer, unassigned) [Example 12-1] has an IC50 [1] of 0.56 µM, an EC50 [2, 12] of 65.9 µM and an IC50 [3] of 0.04 µM. It also gave an EC50 [4, 9] of 8.2 µM.

In the case of `NC(=O)c1cc([C@@H]2O[C@@H]3COP(=O)(S)O[C@H]4[C@@H](F)[C@H](n5cnc6c(N)ncnc65)O[C@@H]4COP(=O)(S)O[C@H]3[C@H]2O)[nH]n1` (single isomer, unassigned) [Example 6-3], the IC50 [1] is reported as over 100 µM, the EC50 [2, 10] is reported as over 100 µM and the IC50 [3] is reported as 16.2 µM. It also gave an EC50 [4, 11] of over 100 µM.

`NC(=O)c1cc([C@@H]2O[C@@H]3COP(=O)(O)O[C@H]4[C@@H](F)[C@H](n5cnc6c(N)ncnc65)O[C@@H]4COP(=O)(S)O[C@H]3[C@H]2O)ccn1` (stereo partly drawn) [Example 14, 4-[(1R,6R,8S,9S,10S,15R,17R,18R)-17-(6-amino-9H-purin-9-yl)-18-fluoro-3,9-dihydroxy-3,12-dioxo-12-sulfanyl-2,4,7,11,13,16-hexaoxa-3λ^5,12λ^5-diphosphatricyclo[13.3.0.0^6,10]octadecan-8-yl]pyridine-2-carboxamide] gave an IC50 [1] of over 100 µM, an EC50 [2, 12] of over 100 µM and an IC50 [3] of 1.14 µM. It also gave an EC50 [4, 6] of over 100 µM.

In the case of `NC(=O)c1cccc2c1nnn2[C@@H]1O[C@@H]2COP(=O)(S)O[C@H]3[C@@H](F)[C@H](n4cnc5c(N)ncnc54)O[C@@H]3COP(=O)(S)O[C@H]2[C@H]1F` (single isomer, unassigned) [Example 4-1], the IC50 [1] is reported as over 100 µM, the EC50 [2, 10] is reported as over 100 µM and the IC50 [3] is reported as 17.8 µM. It also gave an EC50 [4, 11] of over 100 µM.

Compound `Nc1ncnc2c1ncn2[C@@H]1O[C@@H]2COP(=O)(S)O[C@H]3[C@@H](O)[C@H](n4cnc5c(=O)n6ccnc6[nH]c54)O[C@@H]3COP(=O)(S)O[C@H]2[C@H]1F` (single isomer, unassigned) [Example 1-2] has an IC50 [1] of 0.07 µM, an EC50 [2, 10] of 5.35 µM and an IC50 [3] of 0.01 µM. It also gave an EC50 [4, 11] of 2.69 µM.

`Nc1ncnc2c1ncn2[C@@H]1O[C@@H]2COP(=O)(O)O[C@H]3[C@@H](O)[C@H](n4cnc5c4ncn4ncnc54)O[C@@H]3COP(=O)(O)O[C@H]2[C@H]1F` [Example 11, (1S,6R,8R,9R,10R,15R,17R,18R)-8-(6-amino-9H-purin-9-yl)-9-fluoro-3,12,18-trihydroxy-17-{3H-[1,2,4]triazolo[3,2-f]purin-3-yl}-2,4,7,11,13,16-hexaoxa-3λ^5,12λ^5-diphosphatricyclo[13.3.0.0^6,10]octadecane-3,12-dione] showed an IC50 [1] of 0.23 µM, an EC50 [2, 5] of 16 µM and an EC50 [4, 9] of 8.35 µM.
